How the values were obtained:
[1] = test system: lysosomal peptidase / purified lysosomal enzymes; assay: hydrolysis under conditions of lysosomal digestion (release of free drug); type: in vitro ADME; details: for daunorubicine regenerated by the action of lysosomal peptidase: pH 6.0, aminoacid linked to daunorubicine
Source text: According to the invention, the arm is of peptidic nature and contains preferably 3 or 4 aminoacids. It is particularly important that the aminoacid being bound to the free amino function of the drug through its carboxylic function, has an asymmetric carbon atom and has the L-configuration because the peptidases or the lysosomal hydrolases only cut the peptidic bonds in the alpha position with respect to an asymmetric carbon. The aminoacid composing the peptidic spacer arm could be selected among the following L-aminoacids: α-aminobutyric acid, γ-aminobutyric acid, ε-aminocaproic acid, arginine, asparagine, aspartic acid, cysteic acid, cysteine, glutamine, glutamic acid, glycine, histidine, 4-hydroxyproline, […]. Of particular interest to play this function is L-leucine. […] In addition, a much higher rate of release of the free drug is obtained when the number of aminoacids making up the peptidic arm increases and may be as high as 78% when the intermediate peptide is made of a sequence of 4 aminoacids. Thus according to the invention, the intermediate "spacer arm" preferably is represented by the sequence

stability in the serum = type: in vitro ADME
Source text: According to the invention, the arm is of peptidic nature and contains preferably 3 or 4 aminoacids. It is particularly important that the aminoacid being bound to the free amino function of the drug through its carboxylic function, has an asymmetric carbon atom and has the L-configuration because the peptidases or the lysosomal hydrolases only cut the peptidic bonds in the alpha position with respect to an asymmetric carbon. The aminoacid composing the peptidic spacer arm could be selected among the following L-aminoacids: α-aminobutyric acid, γ-aminobutyric acid, ε-aminocaproic acid, arginine, asparagine, aspartic acid, cysteic acid, cysteine, glutamine, glutamic acid, glycine, histidine, 4-hydroxyproline, […]. Of particular interest to play this function is L-leucine.

L 1210 leukemia = assay: mice inoculated intraperitoneally with L 1210 leukemia, treated by intraperitoneal route; type: in vivo; details: for activity against L 1210 leukemia in mice compared with daunorubicine or L-leucyl-daunorubicine: i.p. inoculation, i.p. treatment; for activity against L 1210 leukemia in mice compared with daunorubicine or L-leucyl-daunorubicine / toxicity compared with daunorubicine or L-leucyl-daunorubicine: equal doses expressed as daunorubicine; for toxicity compared with daunorubicine or L-leucyl-daunorubicine: mice, i.p.
L 1210 leukemia cells = assay: in vitro growth inhibition of L 1210 leukemia cells; type: cell-based; details: 72 hours of culture; concentration near 10 μg/cm^3
Method: Thus the products in which the drug is daunorubicine inhibit in vitro the growth of cancerous cells such as cells of L 1210 leukemia in an appropriate medium. For example, after 72 hours of culture, BSA-succinyl-L-Ala-L-Leu-L-Ala-L-Leu-Daunorubicine at a concentration near 10 μg/cm^3, causes 90% of inhibition of the growth of L 1210 leukemia cells.

[2] = 5 mg/kg expressed as daunorubicine, mice with L 1210 leukemia

COc1cccc2c1C(=O)c1c(O)c3c(c(O)c1C2=O)C[C@@](O)(C(=O)CO)C[C@@H]3O[C@H]1C[C@H](NC(=O)[C@@H](N)CC(C)C)[C@H](O)[C@H](C)O1 [N-L-leucyl-doxorubicine]
regeneration of the free drug when submitted to lysosomal digestion [1]: regenerate rapidly the free drug | stability in the serum (stability in the serum): stable in the serum

COc1cccc2c1C(=O)c1c(O)c3c(c(O)c1C2=O)C[C@@](O)(C(C)=O)C[C@@H]3O[C@H]1C[C@H](NC(=O)[C@@H](N)CC(C)C)[C@H](O)[C@H](C)O1 [N-L-leucyl-daunorubicine]
regeneration of the free drug when submitted to lysosomal digestion [1]: regenerate rapidly the free drug | free daunorubicine released ([1]; two hours hydrolysis at pH 4.5, lysosomal digestion): 65% | free daunorubicine released ([1]; two hours hydrolysis at pH 6.0, lysosomal digestion): 90% | stability in the serum (stability in the serum): stable in the serum

COc1cccc2c1C(=O)c1c(O)c3c(c(O)c1C2=O)C[C@@](O)(C(C)=O)C[C@@H]3O[C@H]1C[C@H](N)[C@H](O)[C@H](C)O1 [daunorubicine, reference compound]
increase of life span (ILS) (L 1210 leukemia; [2]): about 7% | toxicity at the dose (L 1210 leukemia; 5 mg/kg, mice with L 1210 leukemia): already toxic at that dose

BSA-succinyl-L-Ala-L-Leu-L-Ala-L-Leu-Daunorubicine: succinyl-alanyl-leucyl-alanyl-leucyl-daunorubicine coupled with bovine serum albumin
inhibition of the growth of L 1210 leukemia cells (L 1210 leukemia cells): 90% | activity against L 1210 leukemia in mice compared with daunorubicine or L-leucyl-daunorubicine (L 1210 leukemia): markedly better activity than that of daunorubicine or L-leucyl-daunorubicine | toxicity compared with daunorubicine or L-leucyl-daunorubicine (L 1210 leukemia): less toxicity

N[C@@H](Cc1ccc(O)cc1)C(=O)O [L-tyrosine]
daunorubicine regenerated by the action of lysosomal peptidase [1]: 70%

CC[C@H](C)[C@H](N)C(=O)O [L-isoleucine]
daunorubicine regenerated by the action of lysosomal peptidase [1]: 60%

COc1cc(NC(C)CCCNC(=O)[C@@H](N)CC(C)C)c2ncccc2c1 (stereo partly drawn) [N-L-leucyl-primaquine]
regeneration of the free drug when submitted to lysosomal digestion [1]: regenerate rapidly the free drug | stability in the serum (stability in the serum): stable in the serum

fetuine-succinyl-L-Ala-L-Leu-L-Ala-L-Leu-daunorubicine: succinylated fetuine coupled with L-alanyl-L-leucyl-L-alanyl-L-leucyl-daunorubicine
increase of life span (ILS) (L 1210 leukemia; [2]): ~194% | surviving mice after 30 days of observation (L 1210 leukemia; 5 mg/kg expressed as daunorubicine, of 10 mice): 8 | activity against L 1210 leukemia in mice compared with daunorubicine or L-leucyl-daunorubicine (L 1210 leukemia): markedly better activity than that of daunorubicine or L-leucyl-daunorubicine | toxicity compared with daunorubicine or L-leucyl-daunorubicine (L 1210 leukemia): less toxicity

Source: US4376765A, “Medicaments, their preparation and compositions containing same” (Institut International de Pathologie Cellulaire et …, priority 1980, dated 1983)
